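Results reflect a 48-hour exposure of cells in 96-well plates to compound at five concentrations. TGI: total growth inhibition.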
Tests used:
Assay in all cases: inhibition of tumour cell growth, NCI panel, 48 h
KM12 colon = test system: KM12 colon
T-47D breast = test system: T-47D breast
SF-539 CNS = test system: SF-539 CNS
SF-295 CNS = test system: SF-295 CNS
RXF 393 renal = test system: RXF 393 renal
DU-145 prostate = test system: DU-145 prostate
U251 CNS = test system: U251 CNS
PC-3 prostate = test system: PC-3 prostate
MDA-N = test system: MDA-N
MOLT-4 leukemia = test system: MOLT-4 leukemia
SK-OV-3 ovarian = test system: SK-OV-3 ovarian
HS 578T breast = test system: HS 578T breast
CAKI-1 renal = test system: CAKI-1 renal
SW-620 colon = test system: SW-620 colon
OVCAR-5 ovarian = test system: OVCAR-5 ovarian
SK-MEL-2 melanoma = test system: SK-MEL-2 melanoma
A549 NSCLC = test system: A549 NSCLC
SF-268 CNS = test system: SF-268 CNS
NCI-H460 lung = test system: NCI-H460 lung
HCT-116 colon = test system: HCT-116 colon
SN12C renal = test system: SN12C renal
OVCAR-3 ovarian = test system: OVCAR-3 ovarian
SR leukemia = test system: SR leukemia
UO-31 renal = test system: UO-31 renal
MDA-MB-231 breast = test system: MDA-MB-231 breast
HOP-62 NSCLC = test system: HOP-62 NSCLC
SNB-19 CNS = test system: SNB-19 CNS
TK-10 renal = test system: TK-10 renal
K-562 leukemia = test system: K-562 leukemia
ACHN renal = test system: ACHN renal
HCT-15 colon = test system: HCT-15 colon
NCI-H23 lung = test system: NCI-H23 lung
786-0 renal = test system: 786-0 renal
UACC-62 melanoma = test system: UACC-62 melanoma
NCI-H226 lung = test system: NCI-H226 lung
BT-549 breast = test system: BT-549 breast
SK-MEL-28 melanoma = test system: SK-MEL-28 melanoma
SNB-75 CNS = test system: SNB-75 CNS
NCI-H522 lung = test system: NCI-H522 lung
EKVX NSCLC = test system: EKVX NSCLC
UACC-257 melanoma = test system: UACC-257 melanoma
CCRF-CEM leukemia = test system: CCRF-CEM leukemia
SK-MEL-5 melanoma = test system: SK-MEL-5 melanoma
HOP-92 NSCLC = test system: HOP-92 NSCLC
COLO 205 colon = test system: COLO 205 colon
MCF7 breast = test system: MCF7 breast
M14 melanoma = test system: M14 melanoma
OVCAR-4 ovarian = test system: OVCAR-4 ovarian
HCC-2998 colon = test system: HCC-2998 colon
OVCAR-8 ovarian = test system: OVCAR-8 ovarian
MALME-3M melanoma = test system: MALME-3M melanoma
MDA-MB-435 = test system: MDA-MB-435
HT29 colon = test system: HT29 colon
A498 renal = test system: A498 renal
HL-60(TB) leukemia = test system: HL-60(TB) leukemia
NCI/ADR-RES ovarian = test system: NCI/ADR-RES ovarian
LOX IMVI melanoma = test system: LOX IMVI melanoma

CC1(C)CC(=O)c2c(nc3c4c([nH]c(-c5ccc([N+](=O)[O-])cc5)c24)CC(C)(C)C3)C1
TGI (KM12 colon): > 100 µM | TGI (T-47D breast): > 100 µM | TGI (SF-539 CNS): > 100 µM | TGI (SF-295 CNS): > 100 µM | TGI (RXF 393 renal): > 100 µM | TGI (DU-145 prostate): > 100 µM | TGI (U251 CNS): > 100 µM | TGI (PC-3 prostate): > 100 µM | TGI (MDA-N): > 100 µM | TGI (MOLT-4 leukemia): > 100 µM | TGI (SK-OV-3 ovarian): > 100 µM | TGI (HS 578T breast): > 100 µM | TGI (CAKI-1 renal): > 100 µM | TGI (SW-620 colon): > 100 µM | TGI (OVCAR-5 ovarian): > 100 µM | TGI (SK-MEL-2 melanoma): > 100 µM | TGI (A549 NSCLC): > 100 µM | TGI (SF-268 CNS): > 100 µM | TGI (NCI-H460 lung): > 100 µM | TGI (HCT-116 colon): > 100 µM | TGI (SN12C renal): > 100 µM | TGI (OVCAR-3 ovarian): > 100 µM | TGI (SR leukemia): 47.9 µM | TGI (UO-31 renal): > 100 µM | TGI (MDA-MB-231 breast): > 100 µM | TGI (HOP-62 NSCLC): > 100 µM | TGI (SNB-19 CNS): > 100 µM | TGI (TK-10 renal): > 100 µM | TGI (K-562 leukemia): > 100 µM | TGI (ACHN renal): > 100 µM | TGI (HCT-15 colon): > 100 µM | TGI (NCI-H23 lung): > 100 µM | TGI (786-0 renal): > 100 µM | TGI (UACC-62 melanoma): 93.4 µM | TGI (NCI-H226 lung): > 100 µM | TGI (BT-549 breast): > 100 µM | TGI (SK-MEL-28 melanoma): > 100 µM | TGI (SNB-75 CNS): > 100 µM | TGI (NCI-H522 lung): > 100 µM | TGI (EKVX NSCLC): > 100 µM | TGI (UACC-257 melanoma): > 100 µM | TGI (CCRF-CEM leukemia): > 100 µM | TGI (SK-MEL-5 melanoma): > 100 µM | TGI (HOP-92 NSCLC): > 100 µM | TGI (COLO 205 colon): 59 µM | TGI (MCF7 breast): > 100 µM | TGI (M14 melanoma): > 100 µM | TGI (OVCAR-4 ovarian): > 100 µM | TGI (HCC-2998 colon): > 100 µM | TGI (OVCAR-8 ovarian): > 100 µM | TGI (MALME-3M melanoma): > 100 µM | TGI (MDA-MB-435): > 100 µM | TGI (HT29 colon): > 100 µM | TGI (A498 renal): 44.6 µM | TGI (HL-60(TB) leukemia): > 100 µM | TGI (NCI/ADR-RES ovarian): > 100 µM | TGI (LOX IMVI melanoma): > 100 µM
